For one assay, the system named is p-P70S6K Thr389. The experiment in a line: AlphaLISA/MSD analysis of S6K phosphorylation in MDA-MB-468 cells. Format: cell-based. To be noted: MDA-MB-468 cells; for IC50: Homo sapiens, read-out: pS6K IC50. The method, then: (§1) Cell culture and reagents. Cells were obtained from ATCC, grown in appropriate medium supplemented with 10% fetal bovine serum and 1% penicillin/streptomycin and maintained at 37 °C in a humidified incubator at 5% CO 2.
(§2) AlphaLISA and MesoScale Discovery (MSD) analysis of 4EBP1, S6K and AKT phosphorylation. mTOR substrate phosphorylation in MDA-MB-468 cells was assayed using AlphaLISA SureFire Ultra kits for p4EBP1 Thr37/46, p-P70S6K Thr389 and p-AKT1/2/3 Ser473 (PerkinElmer), and MSD Multi-Array Assay Systems for Phospho-4EBP1 (Thr37/46) and Phospho-AKT (Ser473) (MSD). Cells were seeded at 25,000 cells per well and exposed the next day to serial three-fold dilutions of compounds in complete medium with 0.1% dimethylsulfoxide (DMSO). After indicated incubation times, cells were lysed and AlphaLISA or MSD performed according to the manufacturers’ protocols. Samples were read using an EnVision Multilabel Plate Reader (PerkinElmer) using standard AlphaLISA settings or using an MSD plate reader. Data were plotted as a function of logM [compound] with a sigmoidal concentration response (variable slope) model fitted to the data to estimate the inhibitor half-maximum effective concentration (EC 50) in Prism 7 (GraphPad). Alternatively, results were analyzed as percentage of control in which 0% was set as signal from 1 μM Torin1 and 100% was set as the mean of DMSO wells on each plate, and inhibitor EC 50 was estimated as described

The subject of assay [1] is 4EBP1 T37/T46 phosphorylation (mTORC1). The experiment in a line: AlphaLISA/MSD analysis of 4EBP1 phosphorylation in MDA-MB-468 cells. To be noted: Homo sapiens; MDA-MB-468 cells; read-out: p4EBP1 IC50. Format: cell-based. The method, then:
as §1, §2
A general note: Alpha assays give light when donor and acceptor beads are brought close together.

The subject of assay [2] is AKT S473 phosphorylation (mTORC2). The experiment in a line: AlphaLISA/MSD analysis of AKT phosphorylation in MDA-MB-468 cells. Format: cell-based. The settings on record: Homo sapiens; MDA-MB-468 cells; read-out: pAKT IC50. The method, then:
as §1, §2

The target of a further assay is T1, FKBP12 (Homo sapiens, UniProt P62942).
T1 construct: Proteros biostructures GmbH (ran the assay)
T1 sequence (P62942 whole entry): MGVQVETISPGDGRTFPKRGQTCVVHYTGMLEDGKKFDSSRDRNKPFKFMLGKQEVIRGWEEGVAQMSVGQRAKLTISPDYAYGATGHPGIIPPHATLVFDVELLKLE
The assay can be described thus: FKBP12 binding affinity, fluorescent probe displacement assay.

In another assay the target is T2, FKBP12-FRB (Homo sapiens, UniProt P42345+P62942).
T2 construct: human mTOR (residues 1360-2549); purchased Thermo Fisher Scientific (ran the assay)
T2 sequence (P62942 whole entry, the tested form may be a part): as the sequence (P62942 whole entry) above
T2 sequence (P42345 1360-2549 limits assumed): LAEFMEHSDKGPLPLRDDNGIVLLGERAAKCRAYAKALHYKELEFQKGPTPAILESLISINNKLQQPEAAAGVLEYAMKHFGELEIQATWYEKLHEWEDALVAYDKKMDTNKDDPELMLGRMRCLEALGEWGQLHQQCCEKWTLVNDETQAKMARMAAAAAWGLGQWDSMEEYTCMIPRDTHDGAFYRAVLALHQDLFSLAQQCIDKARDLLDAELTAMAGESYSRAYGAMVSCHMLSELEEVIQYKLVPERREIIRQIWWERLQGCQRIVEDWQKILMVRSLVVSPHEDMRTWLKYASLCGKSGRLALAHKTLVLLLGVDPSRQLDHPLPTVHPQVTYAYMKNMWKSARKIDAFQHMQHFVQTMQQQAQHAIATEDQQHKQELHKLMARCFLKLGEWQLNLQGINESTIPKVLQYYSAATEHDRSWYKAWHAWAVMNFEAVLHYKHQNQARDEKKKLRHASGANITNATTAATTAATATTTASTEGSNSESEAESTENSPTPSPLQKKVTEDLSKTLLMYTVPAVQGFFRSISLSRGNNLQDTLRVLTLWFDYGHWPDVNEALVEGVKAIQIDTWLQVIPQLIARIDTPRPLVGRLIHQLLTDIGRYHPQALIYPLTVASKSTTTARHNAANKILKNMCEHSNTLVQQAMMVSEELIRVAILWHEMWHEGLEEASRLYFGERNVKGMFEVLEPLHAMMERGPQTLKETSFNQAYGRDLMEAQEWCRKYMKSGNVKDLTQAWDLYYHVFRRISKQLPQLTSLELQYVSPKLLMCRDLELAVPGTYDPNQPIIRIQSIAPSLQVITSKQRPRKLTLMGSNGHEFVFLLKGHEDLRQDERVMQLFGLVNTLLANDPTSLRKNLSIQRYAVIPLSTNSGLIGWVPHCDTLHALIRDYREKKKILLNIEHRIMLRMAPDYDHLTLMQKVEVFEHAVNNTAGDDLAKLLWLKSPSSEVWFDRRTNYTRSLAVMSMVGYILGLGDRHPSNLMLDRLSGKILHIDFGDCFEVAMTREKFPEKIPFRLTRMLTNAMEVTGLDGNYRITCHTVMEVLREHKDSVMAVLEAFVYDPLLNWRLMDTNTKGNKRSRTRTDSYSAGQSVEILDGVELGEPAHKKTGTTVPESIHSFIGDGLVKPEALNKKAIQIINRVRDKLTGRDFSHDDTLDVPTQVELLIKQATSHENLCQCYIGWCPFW
The experiment in a line: TR-FRET ternary complex assay. Format: binding. The settings on record: at the assay detection limit. How it is done:
Proteros biostructures GmbH, using a fluorescent probe displacement assay. […]
same conditions, with 6 nM fluorescent probe present. 50 nL compound in DMSO was added to […]
11 different concentrations of compound with a 3-fold dilution factor were tested. After a 6 h incubation at room temperature acceptor fluorescence was read on a plate reader. […]
displacement) were calculated using standard fitting algorithms. The reporter probe is used at a concentration reflecting the tenfold concentration of its own Kd (probe) value. Thus, according to the Cheng Prusoff equation, the Kd value can be calculated with Kd = IC 50 / (1 + (([10 x Kd probe]) / [Kd probe]) = IC 50 / 11.
TR–FRET ternary complex assay. Assay was performed by Thermo Fisher Scientific, using a modification of a previously described protocol. 1 A homogeneous assay mixture was prepared […]
Thermo Fisher Scientific catalog no. A15112) in 50 mM HEPES pH 7.5, 0.01% polysorbate 20, 1 mM EGTA and 10 mM MnCl 2. […]
Nanosyn Lipid Kinase screen. Biochemical inhibition of lipid and related protein kinases was determined by Nanosyn (Santa Clara, CA). […]
was determined by detection of fluorescent substrates using a microfluidic electrophoresis mobility shift assay with a LabChip3000 instrument (Caliper/PerkinElmer). […]
A general note: Time-resolved FRET reads energy transfer from a long-lived donor to a nearby acceptor.

The next assay deals with NCI-H2122 NSCLC CDX. The assay can be described thus: NCI-H2122 NSCLC CDX model. The settings on record: RMC-6272 10 mg/kg ip once weekly; sotorasib 100 mg/kg po qd; single agents or combination. Format: in vivo. The method, then:
groups when mean tumor volume reached 400–600 mm 3. Tumor and plasma samples were collected for PK and PD analysis at indicated time points after a single dose of indicated […]
doses. Everolimus was formulated in v/v/v/, 30/5/65 Propylene glycol/Tween 80/H 2O.
NCI-H2122 xenograft studies. Female Balb/c nude mice (Beijing V.R Biotechnology Co. […]
per inoculation. When mean tumor volume reached between 150–200 mm 3, mice were […]
Transcutol/Solutol HS 15/H 2O. Sotorasib (AMG 510) was administered by oral gavage at 100 mg/kg daily and formulated in 2% (w/v) HPMC E-50, 0.5% Tween 80 in 50 mM sodium citrate […]
In vivo pharmacodynamics. Snap frozen tumors collected were homogenized with MSD complete lysis buffer (as prepared according to Meso Scale Discovery kit protocol) using PreCellys Bead Shaker (Bertin Instruments) according to manufacturer's protocol. Phospho-4E-BP1(Thr37/46) Whole Cell Lysate Kit (Meso Scale Discovery) was used to quantify phosphorylation of 4E-BP1 in the tumors according to manufacturer's protocol.
Expression and purification of FKBP12, FRB domain, and RHEB-GTPγS. DNA pET28

A further assay has as its system Candida albicans. The settings on record: 10 strains of yeast Candida albicans; cited from earlier work.
In the next assay the test system is tumor p4EBP1. The experiment in a line: Tumor PD after a single dose in the MCF-7 CDX model. Format: in vivo, mice. To be noted: MCF-7 CDX.

Entries after “also recorded” stand apart in the source; their conditions may differ.

The IC50 is the point on the concentration scale where inhibition reaches its midpoint. Usually Kd stands for the constant that tells how readily two partners part at equilibrium. Lower therefore signals a tighter complex. Usually EC50 stands for the concentration that produces a half-maximal response. A lower EC50 goes with higher potency in that assay.

On to `CO[C@H]1C[C@@H]2CC[C@@H](C)[C@@](O)(O2)C(=O)C(=O)N2CCCC[C@H]2C(=O)O[C@H]([C@H](C)C[C@@H]2CC[C@@H](O)[C@H](OC)C2)C[C@@H](OC)[C@H](C)/C=C(\C)[C@@H](O)[C@@H](OC)C(=O)[C@H](C)C[C@H](C)/C=C/C=C/C=C/1C` [compound 12, C32-methoxy rapamycin], for which the IC50 is 0.37 nM in the assay on p-P70S6K Thr389, over 1000 nM in assay [1] and over 1000 nM in assay [2]. In addition, in the assay on p-P70S6K Thr389, the “decrease in potency (pS6K) relative to rapamycin 1” value worked out at 6 fold. This compound registered a Kd at FKBP12 of 701 nM. Also, the “decrease in affinity for FKBP12 relative to rapamycin 1” value on FKBP12 was about 1600 fold. On FKBP12-FRB, the EC50 is under 10 nM.

Consider `C=CC(=O)N1CCN(c2nc(=O)n(-c3c(C)ccnc3C(C)C)c3nc(-c4c(O)cccc4F)c(F)cc23)[C@@H](C)C1` [sotorasib], for which, in the assay on NCI-H2122 NSCLC CDX, the “antitumor activity (tumor regressions) in NCI-H2122 CDX model” value is recorded as “Neither; also recorded: only modest inhibition of tumor growth”.

`CO[C@H]1C[C@@H]2CC[C@@H](C)[C@@](O)(O2)C(=O)C(=O)N2CCCC[C@H]2C(=O)O[C@H]([C@H](C)C[C@@H]2CC[C@@H](O)[C@H](OC)C2)CC(=O)[C@H](C)/C=C(\C)[C@@H](O)[C@@H](OC)C(=O)[C@H](C)C[C@H](C)/C=C/C=C/C=C/1C` [compound 1, Rapamycin, reference compound]: the IC50 in assay [2] was over 1000 nM. For the same compound, in the assay with Candida albicans, the minimum inhibitory concentration is 0.02 to 0.2 µg/mL.

On to `CO[C@H]1C[C@@H]2CC[C@@H](C)[C@@](O)(O2)C(=O)C(=O)N2CCCC[C@H]2C(=O)O[C@H]([C@H](C)C[C@@H]2CC[C@@H](OCCO)[C@H](OC)C2)CC(=O)[C@H](C)/C=C(\C)[C@@H](O)[C@@H](OC)C(=O)[C@H](C)C[C@H](C)/C=C/C=C/C=C/1C` [compound 4, everolimus, reference compound], for which the results for the IC50 (with p-P70S6K Thr389; in assay [1]; in assay [2]) were 0.07 nM, over 1000 nM and over 1000 nM, respectively. Further, the “effect on tumor p4EBP1 levels” value in the assay with tumor p4EBP1 (single dose (38, 40 ip; everolimus 5 mg/kg oral)) is reported as “minimal effect”.

For the compound `CC(C)n1nc(-c2ccc3oc(N)nc3c2)c2c(N)ncnc21` [compound 5, sapanisertib, reference compound], in assay [2], the IC50 came out at 1.8 nM. Also, the “inhibition of tumor p4EBP1” value in the assay on tumor p4EBP1 (4 h after intraperitoneal dosing at 1 mg/kg) is over 80%.

Take `CO[C@H]1C[C@@H]2CC[C@@H](C)[C@@](O)(O2)C(=O)C(=O)N2CCCC[C@H]2C(=O)O[C@H]([C@H](C)C[C@@H]2CC[C@@H](O)[C@H](OC)C2)C[C@@H](O)[C@H](C)/C=C(\C)[C@@H](O)[C@@H](OC)C(=O)[C@H](C)C[C@H](C)/C=C/C=C/C=C/1C` [compound 11, C32-hydroxy rapamycin]: at FKBP12, binding was characterised by a dissociation constant (Kd) of 13.3 nM.
